# According to patent US4189497A, “Method of treating arthritic disease” (American Cyanamid Company, priority 1978, dated 1980):
# Test system: Adjuvant Arthritis in Rats
# Assay: Adjuvant induced arthritis in rats (Freund's adjuvant, right hind paw)
# Description: Adjuvant induced experimental polyarthritis is a specific systemic disease of the rat which shares interesting similarities with rheumatoid arthritis. Specifically, the histology of the two diseases bears a remarkable resemblance as shown by C. M. Pearson et al., Am. J. Pathol. 42, 73 (1963). E. M. Glenn, Am. J. Vet. Res. 27 (116) 339 (1966) has classified adjuvant induced polyarthritis as a crippling and permanent deformity resulting from diffuse connective tissue involvement around certain susceptible joints in the rat. Zahiri et al., Can. Med. Ass. J. 101, 269 (1969) have shown that the fusiform swelling of the distal joints is associated with edema, congestion and synovitis including pannus formation, all of which precede the ultimate destruction of bone and cartilage. Furthermore, Zahiri et al. indicate that the cartilage destruction in the joint is due to an invasive pannus which originates in the marginal synovium and extends across the articular surface to erode it. […] See S. Wong et al., J. Pharm. & Exptl. Ther. 185, 127 (1973) and G. R. Bobalick et al., Agents & Actions 4, 364 (1974).
# Groups of three Royal Hart, Wistar strain rats weighing 200±10 grams each were injected intradermally in the right hind paw with Freund's adjuvant (dried human tubercle bacilli in a mineral oil vehicle) at a dose of 2 mg./kg. of body weight. Test compound was administered orally in a 1.5% starch vehicle at various doses once daily on days 0 through 13 post challenge. […] On the 14th and 21st day post challenge the diameter of the injected paw (primary lesion) was measured by micrometer caliper. The volume of inflamed paws were estimated from these measurements and the results are expressed as percent inhibition of swelling as compared to controls. At the same time, the other inflamed sites, such as ears, paws and tail (secondary lesions) were observed and each rat was graded as to degree of inflammation and swelling present. The grading is based on a scale of 0 to 24, where 0 represents a complete absence of induced arthritic nodules and 24 represents the maximum degree of inflammation. The mean grade for each treated group is calculated and the effects of each compound are expressed as percent inhibition of the control grade.
# [1] = oral dose 50 mg./kg. once daily days 0-13
# [2] = oral dose 100 mg./kg. once daily days 0-13
# [3] = oral dose 200 mg./kg. once daily days 0-13
# [4] = oral dose 400 mg./kg. once daily days 0-13
# [5] = oral dose 0.25 mg./kg. once daily days 0-13
# [6] = oral dose 0.5 mg./kg. once daily days 0-13
# [7] = oral dose 1 mg./kg. once daily days 0-13
# [8] = oral dose 2 mg./kg. once daily days 0-13
# [9] = oral dose 18.8 mg./kg. once daily days 0-13
# [10] = oral dose 37.5 mg./kg. once daily days 0-13
# [11] = oral dose 75 mg./kg. once daily days 0-13
# [12] = oral dose 150 mg./kg. once daily days 0-13
smiles,measurement,setting,value
CC(=O)Oc1ccccc1C(=O)O [Aspirin],% Inhibition of Swelling (primary lesion) Day 14,[1],23%
same,Mean Weight Gain Day 14,[1],56 grams
same,% Inhibition of Swelling (primary lesion) Day 21,[1],3%
same,Mean Weight Gain Day 21,[1],44 grams
same,% Inhibition of Swelling (primary lesion) Day 14,[2],36%
same,Mean Weight Gain Day 14,[2],48 grams
same,% Inhibition of Swelling (primary lesion) Day 21,[2],13%
same,Mean Weight Gain Day 21,[2],53 grams
same,% Inhibition of Swelling (primary lesion) Day 14,[3],48%
same,Mean Weight Gain Day 14,[3],40 grams
same,% Inhibition of Swelling (primary lesion) Day 21,[3],27%
same,Mean Weight Gain Day 21,[3],44 grams
same,% Inhibition of Swelling (primary lesion) Day 14,[4],73%
same,Mean Weight Gain Day 14,[4],41 grams
same,% Inhibition of Swelling (primary lesion) Day 21,[4],48%
same,Mean Weight Gain Day 21,[4],55 grams
"N#CCC(=O)c1cccs1 [B-oxo-2-thiophenepropionitrile, β-oxo-2-thiophenepropionitrile]",progression of the arthritis and associated joint deterioration,"adjuvant arthritic rats, oral dosing, summary of Table I",appears to suppress the progression of the arthritis and associated joint deterioration
same,% Inhibition of Control Grade (secondary lesion) Day 14,[1],46%
same,% Inhibition of Swelling (primary lesion) Day 14,[1],46%
same,Mean Weight Gain Day 14,[1],56 grams
same,% Inhibition of Control Grade (secondary lesion) Day 21,[1],0%
same,% Inhibition of Swelling (primary lesion) Day 21,[1],18%
same,Mean Weight Gain Day 21,[1],48 grams
same,Dead/Treated At 21 Days,"oral dose 50 mg./kg. once daily days 0-13, adjuvant arthritic rats",3/36
same,% Inhibition of Control Grade (secondary lesion) Day 14,[2],58%
same,% Inhibition of Swelling (primary lesion) Day 14,[2],58%
same,Mean Weight Gain Day 14,[2],52 grams
same,% Inhibition of Control Grade (secondary lesion) Day 21,[2],10%
same,% Inhibition of Swelling (primary lesion) Day 21,[2],42%
same,Mean Weight Gain Day 21,[2],69 grams
same,Dead/Treated At 21 Days,"oral dose 100 mg./kg. once daily days 0-13, adjuvant arthritic rats",3/18
same,% Inhibition of Control Grade (secondary lesion) Day 14,[3],72%
same,% Inhibition of Swelling (primary lesion) Day 14,[3],72%
same,Mean Weight Gain Day 14,[3],34 grams
same,% Inhibition of Control Grade (secondary lesion) Day 21,[3],32%
same,% Inhibition of Swelling (primary lesion) Day 21,[3],29%
same,Mean Weight Gain Day 21,[3],54 grams
same,Dead/Treated At 21 Days,"oral dose 200 mg./kg. once daily days 0-13, adjuvant arthritic rats",2/18
COc1ccc2c(c1)c(CC(=O)O)c(C)n2C(=O)c1ccc(Cl)cc1 [Indomethacin],% Inhibition of Swelling (primary lesion) Day 14,[5],30%
same,Mean Weight Gain Day 14,[5],51 grams
same,% Inhibition of Swelling (primary lesion) Day 21,[5],4%
same,Mean Weight Gain Day 21,[5],57 grams
same,% Inhibition of Swelling (primary lesion) Day 14,[6],40%
same,Mean Weight Gain Day 14,[6],53 grams
same,% Inhibition of Swelling (primary lesion) Day 21,[6],20%
same,Mean Weight Gain Day 21,[6],51 grams
same,% Inhibition of Swelling (primary lesion) Day 14,[7],46%
same,Mean Weight Gain Day 14,[7],63 grams
same,% Inhibition of Swelling (primary lesion) Day 21,[7],19%
same,Mean Weight Gain Day 21,[7],65 grams
same,% Inhibition of Swelling (primary lesion) Day 14,[8],51%
same,Mean Weight Gain Day 14,[8],68 grams
same,% Inhibition of Swelling (primary lesion) Day 21,[8],24%
same,Mean Weight Gain Day 21,[8],68 grams
CCCCC1C(=O)N(c2ccccc2)N(c2ccccc2)C1=O [Phenylbutazone],% Inhibition of Swelling (primary lesion) Day 14,[9],31%
same,Mean Weight Gain Day 14,[9],50 grams
same,% Inhibition of Swelling (primary lesion) Day 21,[9],7%
same,Mean Weight Gain Day 21,[9],45 grams
same,% Inhibition of Swelling (primary lesion) Day 14,[10],56%
same,Mean Weight Gain Day 14,[10],53 grams
same,% Inhibition of Swelling (primary lesion) Day 21,[10],14%
same,Mean Weight Gain Day 21,[10],53 grams
same,% Inhibition of Swelling (primary lesion) Day 14,[11],62%
same,Mean Weight Gain Day 14,[11],51 grams
same,% Inhibition of Swelling (primary lesion) Day 21,[11],28%
same,Mean Weight Gain Day 21,[11],50 grams
same,% Inhibition of Swelling (primary lesion) Day 14,[12],75%
same,Mean Weight Gain Day 14,[12],40 grams
same,% Inhibition of Swelling (primary lesion) Day 21,[12],44%
same,Mean Weight Gain Day 21,[12],50 grams
